Laboratory results published in ChEMBL document CHEMBL1201862, “PubChem BioAssay data set” (2004).
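These data come from cells grown in 96-well plates and exposed to compound for 48 hours at five concentrations. The concentration for 50% growth inhibition is given as GI50.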 Active and inactive are the calls of the source. Rule as the data show it: active = GI50 up to about 1.1 µM and inactive = higher. Numbered stars: 1 amine (or outer) side, 2 acyl side, 3 side chain; on linkers, the order of the positions; unused ones are H or OH. Square brackets hold non-standard residues; d marks the D form. Peptide text beside a SMILES is read from it. * marks the point of attachment. X30 = CC(=O)N(C)SCC(N[*:1])C(=O)[*:2]; Cbz = O=C(OCc1ccccc1)*; Boc = CC(C)(C)OC(=O)*; Bn = c1ccc(C*)cc1

Assays:
Experiment in all cases: DTP human tumour cell line panel, 48 h
A549 = system: A549
ACHN = system: ACHN
CCRF-CEM = system: CCRF-CEM
COLO 205 = system: COLO 205
DU-145 = system: DU-145
EKVX = system: EKVX
HCT-116 = system: HCT-116
HL-60 = system: HL-60
Hs-578T = system: Hs-578T
KM12 = system: KM12
MDA-MB-231 = system: MDA-MB-231
MDA-MB-435 = system: MDA-MB-435
Malme-3M = system: Malme-3M
NCI-H23 = system: NCI-H23
OVCAR-4 = system: OVCAR-4
RPMI-8226 = system: RPMI-8226
SF-539 = system: SF-539
SW-620 = system: SW-620
U-251 = system: U-251
UACC-62 = system: UACC-62

Measured: GI50

CCOC(=O)c1nc2cc(F)c(N3CCOCC3)cc2[nH]c1=O
inactive: A549 > 100 µM | ACHN > 100 µM | CCRF-CEM 96.4 µM | COLO 205 > 100 µM | DU-145 > 100 µM | EKVX 13.9 µM | HCT-116 > 100 µM | HL-60 47.5 µM | Hs-578T 56.1 µM | KM12 > 100 µM | MDA-MB-231 > 100 µM | MDA-MB-435 > 100 µM | Malme-3M > 100 µM | NCI-H23 > 100 µM | OVCAR-4 > 100 µM | RPMI-8226 > 100 µM | SF-539 > 100 µM | SW-620 > 100 µM | U-251 99.1 µM | UACC-62 > 100 µM

CC(=O)N1CN2C(=O)CCC2c2ccccc21 (stereo not given)
inactive: A549 > 100 µM | ACHN > 100 µM | CCRF-CEM > 100 µM | COLO 205 > 100 µM | DU-145 > 100 µM | EKVX > 100 µM | HCT-116 > 100 µM | HL-60 > 10 µM | Hs-578T > 100 µM | KM12 > 100 µM | MDA-MB-231 > 100 µM | MDA-MB-435 > 100 µM | Malme-3M > 100 µM | NCI-H23 > 100 µM | OVCAR-4 > 100 µM | RPMI-8226 > 100 µM | SF-539 > 100 µM | SW-620 > 100 µM | U-251 > 100 µM | UACC-62 > 100 µM

COC(=O)C(Cc1ccccc1)NC(=O)C(CS)NC(=O)OC(C)(C)C (stereo not drawn) (Boc-Cys-Phe-OMe; configuration not given here)
inactive: A549 > 100 µM | ACHN > 100 µM | CCRF-CEM 21.8 µM | COLO 205 > 100 µM | DU-145 > 100 µM | EKVX > 100 µM | HCT-116 41.9 µM | HL-60 27.7 µM | Hs-578T > 100 µM | KM12 94.4 µM | MDA-MB-231 26.9 µM | MDA-MB-435 > 100 µM | Malme-3M > 100 µM | NCI-H23 > 100 µM | OVCAR-4 32.1 µM | RPMI-8226 > 100 µM | SF-539 > 100 µM | SW-620 53.7 µM | U-251 > 100 µM | UACC-62 > 100 µM

CC(=O)N(C)SCC(NC(=O)C(Cc1ccccc1)NC(=O)OCc1ccccc1)C(=O)NC(Cc1ccccc1)C(=O)NC(Cc1c[nH]c2ccccc12)C(=O)NC(CCCCNC(=O)OCc1ccccc1)C(=O)NC(C(=O)NC(CSN(C)C(C)=O)C(=O)NC(C(N)=O)C(C)OCc1ccccc1)C(C)OCc1ccccc1 (stereo not given) (Cbz-F[X30]FWK(Cbz)T(Bn)[X30]T(Bn)-NH2; configuration not given here)
inactive: A549 > 100 µM | ACHN > 100 µM | CCRF-CEM > 100 µM | COLO 205 > 100 µM | DU-145 > 100 µM | EKVX > 100 µM | HCT-116 > 100 µM | HL-60 > 100 µM | Hs-578T > 100 µM | KM12 40.9 µM | MDA-MB-231 35.3 µM | MDA-MB-435 > 100 µM | Malme-3M > 100 µM | NCI-H23 > 100 µM | OVCAR-4 > 100 µM | RPMI-8226 74.3 µM | SF-539 > 100 µM | SW-620 > 100 µM | U-251 70.5 µM | UACC-62 > 100 µM
